Data: patent US20250340593A1, “METHOD AND COMPOSITION FOR TREATING NEURODEGENERATIVE DISORDER” (priority 2022, published 2025)
Residues, ends and D or L forms follow the SMILES beside them.

Columns and labels:
[1] = target: T1, biotinylated Aβ42 oligomers (Aβo (42)) (Homo sapiens, UniProt P05067); experiment: Peptide array probed with biotinylated Aβ42 oligomers; type: binding; conditions: biotinylated Aβo 0.1 to 10 μg.mL-1, BP result at the lowest concentration (0.1 μg/ml-1)
T1 construct: purchased Bachem; host or cells: chemical synthesis
T1 sequence (P05067 672-713 limits assumed): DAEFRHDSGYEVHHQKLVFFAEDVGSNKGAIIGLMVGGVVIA
Description: In the context of the invention, cellulose-bound peptide arrays encompassing the heparin binding domain and the C-terminal human VEGF sequence (UniProtKB #P15692) were synthesized by Proteomic Solutions. Overlapping 15-mer peptides were shifted by 3 aa and two copies of the same array were spotted on the slide for quality control and reproducibility. Arrays were blocked for 2 h in Tris buffered saline, 1% Tween 20, 5% BSA to prevent unspecific binding, and were subsequently probed for 15 h at 4° C. with biotinylated AB42 oligomers (Aβo (42)) using concentrations varying from 0.1 to 10 μg.mL-1 or vehicle used as a control. After washing in TBS 1% Tween 20, peptide arrays were incubated with HRP-conjugated Streptavidin for 2 h at RT. Aβo interaction was detected using SuperSignal West Pico PLUS chemiluminescent substrate and non-specific Aβ binding was determined using the control peptide (CP) spotted on the peptide array. […]
Cellulose-bound peptide arrays encompassing the heparin binding domain and the C-terminal human VEGF sequence (UniProtKB #P15692) were synthesized by Proteomic Solutions. […] Aβo interaction was detected using SuperSignal West Pico PLUS chemiluminescent substrate and non-specific Aβ binding was determined using the control peptide (CP) spotted on the peptide array. […]

[2] = target: T2, monomeric Aβ42 (Homo sapiens, UniProt P05067); experiment: Thioflavin-T assay of Aβ42 aggregation kinetics; type: biochemical; conditions: for inhibition of fibril formation (normalized ThT fluorescence): 15 μM monomeric Aβ, equimolar peptide, 24 hours; for ThT fluorescence of peptide alone: highest concentration of peptide alone, no Aβ
T2 construct: purchased Bachem; host or cells: chemical synthesis
T2 sequence (P05067 672-713 limits assumed): as above
Description: Thioflavin-T (ThT) assays were performed in black polystyrene 384-well plates with transparent bottom using a Tecan microplate reader with a set of excitation/emission wavelengths of 450/490 nm. Monomeric Aβ42 was prepared as described above and blocking or control peptides (BP ou CP) were used at indicted concentrations, ranging from 0.5 to 15 μM. The final concentration of ThT and monomeric AB42 was used at 15 μM in PBS buffer (pH 7.4), with a total reaction volume per well of 110 μL. The plate was sealed with a transparent plastic film and incubated at 37° C. prior to fluorescence measurement. ThT fluorescence intensity was monitored every 5 min over 24 h at 37° C. without agitation. Three replicates per condition were measured.

[3] = target: T3, Aβ preparation (30 μM) (Homo sapiens, UniProt P05067); experiment: Transmission electron microscopy of Aβ aggregates; conditions: for morphology of Aβ aggregates by TEM: Aβ 30 μM with equimolar peptide, 24 h
T3 construct: purchased Bachem; host or cells: chemical synthesis
T3 sequence (P05067 672-713 limits assumed): as above
Description: Prior to imaging, 10 μL of an Aβ preparation (30 μM) aggregated for 24 h at 37° C. in the presence or absence of equimolar concentration of the CP or BP were deposited onto Formvar-C coated mesh nickel grids. After a 10 min incubation step at RT, grids were rinsed with sterile dH20. Samples were subsequently stained using 5% uranyl acetate for 1 minute in the dark to increase contrast and were allowed to air dry for 2 minutes. Finally, they were visualized with a JEM 1400 Transmission Electron Microscope (Jcol Tokyo, Japan), operating at 120 kV, initially imaged at low magnification (20,000X), and thereafter at 120,000X using a Gatan Orius 1000 digital micrograph software.

[4] = tested on: DIV 21 primary hippocampal neurons; experiment: Aβ synaptic targeting in primary hippocampal neurons; type: cell-based, mouse; conditions: 500 nM biotinylated HMW Aβo enriched preparation aggregated 2 h with equimolar peptide; neurons treated 30 min
Description: Primary hippocampal neuron cultures were prepared from E17-18 C57Bl/6JRj mice. Briefly, hippocampi were removed, cut into pieces in Hank's buffered salt solution (HBSS), digested in HBSS supplemented with trypsin (0.25% v/v) and rinsed in HBSS and BSA 0.2%. Next, hippocampi were triturated in Neurobasal medium without phenol red supplemented with L-glutamine (2 mM), 2% B27, 1% penicillin-streptomycin (10000 U/mL). Hippocampal neurons were then plated onto poly-L-lysine coated coverslips (0.5 mg/ml) at a low density (15×10^3 cells/cm2) for synaptic targeting experiments. Neurons were subsequently cultured for 21 DIV in supplemented Neurobasal medium at 37° C. under 5% CO2, one-half of the media being changed once a week. […]
Treated hippocampal neuron cultures were fixed with 4% paraformaldehyde in 0.1 M phosphate buffer at RT prior to immunostaining. After a blocking step in non-permeabilizing condition (PBS, 1% BSA) surface-bound biotinylated Aβ was detected with fluorescently tagged streptavidin (Alexa Fluor 647, Invitrogen) incubated for 3 h at RT. […]
Immunostainings images were obtained using a confocal Zeiss LSM 880 AiryScan microscope equipped with two diode lasers (405, 561 nm), a laser gaz argon (488 nm) and a laser gaz He/Ne ([…]), a 63x objective and an additional zoom factor (3x). […] Biotinylated Aβ clusters were quantified in each ROI in collapsed Z-stacks.

Molecule	labeling of peptide spot by biotinylated Aβo [1]	inhibition of fibril formation (normalized ThT fluorescence) [2]	ThT fluorescence of peptide alone [2]	steepness of the exponential phase corresponding to Aβ42 nucleation ([2]; peptide 0.5 to 15 μM, 15 μM Aβ42)	morphology of Aβ aggregates by TEM [3]	self-assembly structures of peptide alone by TEM [3]	synapses colocalized with Aβ [4]
CC(C)[C@H](NC(=O)[C@H](Cc1ccc(O)cc1)NC(=O)[C@@H](NC(=O)[C@H](CO)NC(=O)[C@H](Cc1c[nH]c2ccccc12)NC(=O)[C@H](CO)NC(=O)[C@H](CCCCN)NC(=O)[C@H](Cc1ccc(O)cc1)NC(=O)[C@H](CCCNC(=N)N)NC(=O)[C@H](CO)NC(=O)[C@H](CCCCN)NC(=O)[C@H](CCCCN)NC(=O)[C@H](CCCNC(=N)N)NC(=O)[C@@H](N)CCCCN)C(C)C)C(=O)NCC(=O)O [BP, KRKKSRYKSWSVYVG] (H-KRKKSRYKSWSVYVG-OH; N-terminus and C-terminus assumed)	clear staining	95%	does not induce any increase in ThT fluorescence	decreases with increasing concentrations	mainly non-fibrillar and amorphous in shape	does not induce any 3-dimensional self-assembly structures	only a small proportion
NDYKDDDDKGAAA [CP, reference compound]	no labelling	no significant effect	does not induce any increase in ThT fluorescence	–	characteristic twisted morphology	does not induce any 3-dimensional self-assembly structures	~40%
